From patent publication US9328141B2, “Polypeptides for the treatment or prevention of cancer and uses thereof” (WUHAN KATYGEN PHARMACEUTICALS, INC., priority 2010, dated 2016) come the findings set out here.

The subject of the test is colon tumor 26. Description: Anti-cancer effect in vivo, transplanted colon tumor 26 in mice. More on the design: species or system BALB/c male mouse. The settings on record: cisplatin 1 mg/kg ipx 5, Day 11. The text has this: The tumors were excised and weighed.
Combine index (CI), CI=AB/(A×B). AB is the T/C of the combined effects of two drugs, A, B either is the T/C of the effect of one drug (when CI<1, these two drugs have combination).

Regarding `N.N.[Cl][Pt][Cl]` [Cisplatin, cisplatin], the The inhibitive rate came out at 44% and the “tumor weight x ± s” value was 1.39 ± 0.39 g.
